Assay results published in publication PMC9468151, “Identification of a binding site on soluble RANKL that can be targeted to inhibit soluble RANK-RANKL interactions and treat osteoporosis” (Nature Communications, 2022).
Values joined by “and” are separate entries in the source; they are usually repeats but may differ in a detail not shown here. Equal entries are not always repeated.

Legend:
[1] = test system: sRANKL induced osteoclast differentiation; assay: In vitro anti-osteoclastogenesis activity determination (TRAP staining); format: cell-based, mouse; parameters: key to inhibition of osteoclastogenesis, dose-response (fig. S2a): % inhibition = 100 − (treated−unstimulated)/(untreated−unstimulated)×100; conditions: for OC inhibitory ratio, sRANKL induced (fig. 3c IC50 curve data): replicates
Method in brief: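 Mouse bone-marrow macrophages in 10 ng/mL M-CSF were stimulated with 100 ng/mL sRANKL plus compound at 9 concentrations, refreshed every 2 days, triplicate wells. After 5 days TRAP-stained osteoclasts were counted; inhibition normalised to untreated and unstimulated controls, IC50 by nonlinear regression.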

[2] = Pharmacokinetic studies in rat; format: in vivo; parameters: plasma concentration-time (fig. S2c): unit not given here; conditions: for Cmax / half-life: Sprague-Dawley; for Cmax / half-life / plasma concentration-time (fig. S2c): rat; for Cmax / half-life / AUC: male SD rats, oral 10 mg/kg, plasma
Description: 28-week-old and 280 g∼370 g weight male SD (Sprague Dawley) rats were used for pharmacokinetic (PK) studies. Rats were weighed and divided into groups of 3 rats per group. Compounds S3, S3-05 and S3-15 were dissolved in deionized water and made the concentration to 1 mg/mL. Then rats were oral gavage administrated at the doses of 10 mg/kg for each compound. Blood samples were collected in tubes with heparin sodium at 5 min, 10 min, 20 min, 30 min, 40 min, 60 min, 2 h, 3 h, 4 h, 5.5 h, 7 h, 9 h, 12 h, 16 h, 24 h, 32 h, 40 h, 48 h, time points, with three […] per time point for each compound. Blood samples were centrifuged 2100 × g for 10 min at 4 °C, then the plasma was transferred to a clean microfuge tube. Plasma samples were stored at −80 °C. Additionally, ten rats were used as a control and not treated with compound. Plasma from control mice was used to calibrate LC-MS and correct for matrix effects. Drug concentration in plasma was quantified by LC-MS-based methods. Pharmacokinetic parameters were estimated using Phoenix WinNonlin (version 6.3) (Certara USA, Princeton, New Jersey) from mean plasma concentration-time profiles.

OVX rats = assay: Osteoporosis therapeutic study in OVX rats (micro-CT); format: in vivo, rat; parameters: Tb.N: unit not given beside the values; conditions: for BV/TV / Tb.N / Tb.Sp / Tb.Th: individual animals; for BV/TV of OVX rats: oral 10 mg/kg/day, 12 weeks, in words
Description: Female SD rats or C57BL/6 mice were cared until they grown up to 6 months old or 10 weeks old, respectively. Then we subjected them to either bilateral ovariectomy or sham operation after anesthesia with 10% chloral hydrate (0.3 mL/100 g). Then all the rats or mice were intramuscular injected of penicillin to prevent infection in the first week of surgery. For rat experiments, after 12 weeks of operation, 3 rats from sham-operated or ovariectomized groups were random selected to determine bone mass by micro-CT imaging biopsy to verify successful produced bone loss(data unshown). Then the OVX rats were individually administrated with S3-15, S3, and S3-05 orally with (10 mg/kg/day) for another 12 weeks. For mouse experiments, after 4 weeks of surgery, the OVX mice were treated with 10 mg/kg/day S3-15 for another 4 weeks.
The weight of rats or mice were recorded every week in the treatment period. After treatment, the rats were harvested, the serum, heart, liver, spleen, lung, kidney, thymus, and femurs were all collected and subjected to subsequent analysis. The right femurs of rats or mice were cleaned excess soft tissue, fixed in 10% formalin, and processed them for microcomputed tomography (micro-CT) analysis. Left mice femurs were collected and excarnate for biomechanical strength testing. Mice peripheral blood were as well as collected for flow cytometry analyzing.
The right femurs of rats or mice were further analyzed with micro-CT on Inveon PET/CT (Siemens, Germany). We used micro-CT to scan the femur from the femoral head to the femoral condyle, using 19 μm resolution, 80 kV 500uA, 360 projection, 3000-6000 image threshold, full rotation cone beam. Three-dimensional reconstruction and histomorphometric analyses of trabecular bone were conducted with the IAW (Inveon analysis workstation) analysis software. The trabecular extended 1 mm (rat) or 0.5 mm (mice) proximally to the end of the distal growth plate over 2 mm (rats) or 1 mm (mice) toward the diaphysis was selected as the region of interest (ROI) for the analysis. The resulting two-dimensional images of trabecular bone in relative cross sections were shown in grayscale. Trabecular bone parameters were measured including bone volume/tissue volume (BV/TV), bone surface area/bone volume (BS/BV), trabecular number (Tb.N), trabecular thickness (Tb.Th), trabecular separation(Tb.Sp) and trabecular pattern factor(Tb.P.F).

[3] = Pharmacokinetic studies in rat; format: in vivo; parameters: unit not given here
[4] = OVX rats, S3-15 oral 10 mg/kg/day 12 weeks, 10 mg/kg/day

| Structure (SMILES) | Cmax [2] [µg/mL] | half-life [2] [h] | AUC [2] [hr*ug/m] | plasma concentration-time (fig. S2c) ([2]; time 0.083 h) | plasma concentration-time (fig. S2c) ([2]; time 0.167 h) | plasma concentration-time (fig. S2c) ([2]; time 0.333 h) | plasma concentration-time (fig. S2c) ([2]; time 0.5 h) | plasma concentration-time (fig. S2c) ([2]; time 0.667 h) | plasma concentration-time (fig. S2c) ([2]; time 1 h) | plasma concentration-time (fig. S2c) ([2]; time 2 h) | plasma concentration-time (fig. S2c) ([2]; time 3 h) | plasma concentration-time (fig. S2c) ([2]; time 4 h) | plasma concentration-time (fig. S2c) ([2]; time 5.5 h) | plasma concentration-time (fig. S2c) ([2]; time 7 h) | plasma concentration-time (fig. S2c) ([2]; time 9 h) | plasma concentration-time (fig. S2c) ([2]; time 12 h) | plasma concentration-time (fig. S2c) ([2]; time 16 h) | plasma concentration-time (fig. S2c) ([2]; time 24 h) | plasma concentration-time (fig. S2c) ([2]; time 48 h) | BV/TV of OVX rats (OVX rats) | further results |
| --- | --- | --- | --- | --- | --- | --- | --- | --- | --- | --- | --- | --- | --- | --- | --- | --- | --- | --- | --- | --- | --- |
| CCOC(=O)c1sc(NC(=O)/C(=N/Nc2ccccc2C(=O)O)C(C)=O)nc1C [S3, (E)-2-(2-(1-((5-(ethoxycarbonyl)-4-methylthiazol-2-yl)amino)-1,3-dioxobutan-2-ylidene) hydrazinyl) benzoic acid] | 1.43 ± 0.65 | 7.51 | 5.67± 3.48 | 1.351 and 0.4444 and 0.2871 | 2.528 and 0.9092 and 0.8091 | 3.09 and 1.211 and 2.048 | 3.054 and 1.206 and 2.481 | 2.576 and 1.333 and 1.703 | 1.712 and 1.674 and 1.242 | 1.693 and 1.071 and 0.7425 | 1.218 and 0.6709 and 0.4108 | 1.2291 and 0.8619 and 0.3316 | 0.4965 and 0.6324 and 0.178 | 0.6171 and 0.2252 and 0.1625 | 0.8173 and 0.544 | 0.5875 and 0.2812 and 0.1945 | 1.063 and 0.3858 and 0.544 | 1.148 and 0.1582 and 0.2706 | 0.06761 and 0.02244 and 0.00409 | increased | IC50 ([1]; Mus musculus, Osteoclast, 120 h, BMMs, M-CSF + 100 ng/mL sRANKL, 5 days, TRAP staining, read-out: OC IC50 (anti-osteoclastogenesis activity)): 0.096 µM; inhibition at 0.0843226 µM ([1]; Mus musculus, Osteoclast, conc. 0.0843226 μM, three replicate columns, read-out: inhibition of osteoclastogenesis, dose-response (fig. S2a)): 55.6%; inhibition at 0.278265 µM ([1]; Mus musculus, Osteoclast, conc. 0.278265 μM, three replicate columns, read-out: inhibition of osteoclastogenesis, dose-response (fig. S2a)): 62.8%; inhibition at 0.918274 µM ([1]; Mus musculus, Osteoclast, conc. 0.918274 μM, three replicate columns, read-out: inhibition of osteoclastogenesis, dose-response (fig. S2a)): 74.4%; inhibition at 3.0303 µM ([1]; Mus musculus, Osteoclast, conc. 3.0303 μM, three replicate columns, read-out: inhibition of osteoclastogenesis, dose-response (fig. S2a)): 82.5%; inhibition at 10 µM ([1]; Mus musculus, Osteoclast, conc. 10 μM, three replicate columns, read-out: inhibition of osteoclastogenesis, dose-response (fig. S2a)): 95.5%; inhibition at 33 µM ([1]; Mus musculus, Osteoclast, conc. 33 μM, three replicate columns, read-out: inhibition of osteoclastogenesis, dose-response (fig. S2a)): 100%; inhibition of osteoclastogenesis, dose-response (fig. S2a) ([1]; conc. 0.0023464 μM, three replicate columns): 14.7982 and 23.3184 and -0.4484; inhibition of osteoclastogenesis, dose-response (fig. S2a) ([1]; conc. 0.00774313 μM, three replicate columns): 4.4843 and 2.691 and 14.7982; inhibition of osteoclastogenesis, dose-response (fig. S2a) ([1]; conc. 0.0255523 μM, three replicate columns): 42.1525 and 52.4664 and 21.0762; inhibition of osteoclastogenesis, dose-response (fig. S2a) ([1]; conc. 0.0843226 μM, three replicate columns): 52.4664 and 43.4978; inhibition of osteoclastogenesis, dose-response (fig. S2a) ([1]; conc. 0.278265 μM, three replicate columns): 63.2287 and 72.1973; inhibition of osteoclastogenesis, dose-response (fig. S2a) ([1]; conc. 0.918274 μM, three replicate columns): 71.7489 and 80.2691; inhibition of osteoclastogenesis, dose-response (fig. S2a) ([1]; conc. 3.0303 μM, three replicate columns): 79.8206 and 91.0314; BV/TV (OVX rats; OVX + compound): 0.3479 and 0.4471 and 0.777 and 0.287 and 0.2327 and 0.4826 and 0.4913; Tb.N (OVX rats; OVX + compound): 0.07107 and 0.08431 and 0.1472 and 0.07083 and 0.06968 and 0.09727 and 0.1011; Tb.Sp (OVX rats; OVX + compound): 0.1332 and 0.1043 (2×) and 0.04227 and 0.1759 and 0.2298 and 0.1047; Tb.Th (OVX rats; OVX + compound): 4.895 and 5.303 and 5.277 and 4.053 and 3.339 and 4.961 and 4.861; plasma concentration-time (fig. S2c) ([3]; time 28 h): 0.7405 and 0.07032 and 0.1222; plasma concentration-time (fig. S2c) ([3]; time 36 h): 0.6382 and 0.07762 and 0.02166 |
| CC(=O)/C(=N\Nc1ccccc1C(=O)O)C(=O)Nc1ccccn1 [S3-15] | 9.52 ± 0.92 | 15.5 | 113.59± 17.41 | 8.91 and 3.381 and 6.675 | 27.134 and 17.7488 and 10.2458 | 13.8156 and 22.2223 and 11.4529 | 17.5658 and 15.3508 and 13.9547 | 19.2235 and 12.2338 and 15.5001 | 10.8474 and 12.0395 and 10.786 | 16.2026 and 12.172 and 14.9878 | 10.9318 and 10.4453 and 9.091 | 11.3125 and 10.0653 and 13.8947 | 8.587 and 8.51 and 12.2576 | 16.4452 and 12.0395 and 11.7835 | 19.4794 and 12.2576 and 12.0395 | 5.907 and 4.021 and 6.547 | 1.447 and 2.372 and 1.915 | 0.5718 (2×) and 0.5604 | 0.1406 and 0.08379 and 0.1171 | increased | OC inhibitory ratio, sRANKL induced (fig. 3c IC50 curve data) ([1]; 0.003 μM): 7.9602 and 6.219 and 4.726; OC inhibitory ratio, sRANKL induced (fig. 3c IC50 curve data) ([1]; 0.01 μM): -4.229 and 6.965 and 4.975; OC inhibitory ratio, sRANKL induced (fig. 3c IC50 curve data) ([1]; 0.03 μM): 19.1542 and 29.1045 and 33.5821; OC inhibitory ratio, sRANKL induced (fig. 3c IC50 curve data) ([1]; 0.1 μM): 31.8408 and 36.5672 and 39.0547; OC inhibitory ratio, sRANKL induced (fig. 3c IC50 curve data) ([1]; 0.3 μM): 40.2985 and 51.7413 and 33.8308; OC inhibitory ratio, sRANKL induced (fig. 3c IC50 curve data) ([1]; 1 μM): 50.7463 and 58.209 and 52.4876; OC inhibitory ratio, sRANKL induced (fig. 3c IC50 curve data) ([1]; 3.3 μM): 76.6169 and 75.8706 and 78.607; OC inhibitory ratio, sRANKL induced (fig. 3c IC50 curve data) ([1]; 10 μM): 91.791 and 91.0448 and 90.2985; OC inhibitory ratio, sRANKL induced (fig. 3c IC50 curve data) ([1]; 33 μM): 99.005 (2×) and 98.5075; oral availability ([2]; rat PK, in words): significant oral availability; plasma concentration-time (fig. S2c) ([2]; time 28 h): 0.2204 (2×) and 0.3334; plasma concentration-time (fig. S2c) ([2]; time 36 h): 0.2818 (2×) and 0.3414; BV/TV (OVX rats; OVX rats, S3-15 oral 10 mg/kg/day 12 weeks, distal femur, 10 mg/kg/day): 0.6788 and 0.422 and 0.4058 and 0.5401 and 0.3909 and 0.3235 and 0.4349 and 0.3705 and 0.4806; Tb.N (OVX rats; [4]): 6.402 1/mm and 4.855 1/mm and 5.594 1/mm and 4.923 1/mm and 3.924 1/mm and 4.525 1/mm and 4.231 1/mm and 4.365 1/mm and 4.683 1/mm; Tb.Sp (OVX rats; [4]): 0.05016 mm and 0.1191 mm and 0.1062 mm and 0.09343 mm and 0.1553 mm and 0.1495 mm and 0.1335 mm and 0.1442 mm and 0.1109 mm; Tb.Th (OVX rats; [4]): 0.05016 mm and 0.1191 mm and 0.1062 mm and 0.09343 mm and 0.1553 mm and 0.1495 mm and 0.1335 mm and 0.1442 mm and 0.1109 mm |
